Experimental data taken from patent US7105527B2, “N4-acylcytosine nucleosides for treatment of viral infections” (priority 2001, dated 2006).
Read-outs that look alike come from different tables or passages of the source.

Tests used:
Assay type in all cases: cell-based
HIV-1RF = assay: Anti-HIV (in MT-2 cells) assay, viral RNA accumulation; settings: EC90, MT-2 cells, read-out: Anti-HIV-1 activity in different cells (EC90, μM) MT-2
In short: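 HIV-1RF in MT-2 cells: viral RNA quantified after 3 days of infection by biotinylated capture/alkaline phosphatase reporter oligonucleotides. HIV-1NL4-3 recombinant virus in MT-4 cells: drug added 24 h post-infection, p24 measured by ELISA 3 days later.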

HepG2 cells = assay: Cytotoxicity assay in HepG2 cells
In short: (§1)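 Compound toxicity measured in each cell type, with cycloheximide as positive cytotoxic control and solvent-exposed untreated cells as negative control. Cytotoxicity IC50 derived from concentration-response curves by the median effective method.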

Vero cells = assay: Cytotoxicity assay in Vero cells
In short: as §1

HIV-1LAl = assay: Anti-HIV (in PBM cells) assay, reverse transcriptase readout
In short: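 Human PBM cells infected with HIV-1; compounds diluted from DMSO stocks into growth medium, AZT as positive control. Virus in supernatant quantified day 6 post-infection by reverse transcriptase assay with (rA)n.(dT)12.18 template-primer; EC50 and EC90 from concentration-response curves by median effective method.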

HIV-1NL4-3 = assay: Anti-HIV assay in MT-4 cells, consensus p24 assay
Experimental: In a second antiviral testing system, the potency of the compounds was determined by measurement of viral RNA accumulation in HIV-1RF infected MT-2 cells (Bacheler L T, Paul M, Otto M J, Jadhav P K, Stone B A & Miller J A (1994) An assay for HIV RNIn infected cell lysates, and its use for rapid evaluation of antiviral efficacy. Antivir. Chem. Chemother. 5:111–121). The virus titer was established to determine the dilution producing 15 to 30 ng/RNA per well of HIV RNIn 3 days of infection. HIV-1 RNA was quantified using biotinylated capture and alkaline phosphatase-derivatized reporter oligonucleotides as described previously (Charvet A-S, Camplo M, Faury P, Graciet J C, Mourier N, Chermann J C & Kraus J L (1994) Inhibition of human immunodeficiency virus type 1 replication by phosphonoformate- and phosphonoacetate-2′,3′-dideoxy-3′-thiacytidine conjugates. J. Med. Chem. 37:2216–2223). In a third system, the effect of analogs on the replication of HIV-1NL4-3 was determined via the InterCompany Consortium consensus p24 assay as previously described (Jadhav P K & MacKay M F (1997) Cyclic urea amide: HIV-1 protease inhibitors with low nanomolar potency against both wild types and protease inhibitor resistant mutants of HIV. J. Med. Chem. 40:181–190). Recombinant viruses were recovered by transfecting the appropriate NL4-3 plasmid by lipofection. Virus stocks recovered 7 to 10 days post-transfection were titered on MT-4 cells to determine if the dilution produced 1,000 to 3,000 ng p24 in 4 days. This dilution was then used in drug susceptibility assays, where drug was added 24 h post infection of cells, and p24 quantified by ELISA 3 days later.

human PBM cells = assay: Cytotoxicity assay in PBM cells
In short: as §1

MT-2 cells = assay: Cytotoxicity assay in MT-2 cells
In short: as §1

[1] = tested on: CEM (human lymphoblastoid) cells; assay: Cytotoxicity assay in CEM cells
In short: as §1

[2] = Table 2, read-out: Cytotoxicity in different cells (IC50, μM) HepG2
[3] = Table 2, read-out: Cytotoxicity in different cells (IC50, μM) Vero
[4] = Table 2, read-out: Anti-HIV-1 activity in different cells (EC90, μM) PBM
[5] = Table 2, read-out: Anti-HIV-1 activity in different cells (EC90, μM) MT-4
[6] = Table 2, read-out: Cytotoxicity in different cells (IC50, μM) PBM
[7] = Table 2, read-out: Cytotoxicity in different cells (IC50, μM) MT-2
[8] = Table 2, read-out: Cytotoxicity in different cells (IC50, μM) CEM

| SMILES | EC90 (HIV-1RF; Table 2) [µM] | IC50 (HepG2 cells; [2]) [µM] | IC50 (Vero cells; [3]) [µM] | EC90 (HIV-1LAl; [4]) [µM] | EC90 (HIV-1NL4-3; [5]) [µM] | IC50 (human PBM cells; [6]) [µM] | IC50 (MT-2 cells; [7]) [µM] | IC50 [1, 8] [µM] | EC90 (HIV-1RF; Table 1) [µM] | IC50 (HepG2 cells; Table 1, read-out: Cytotoxicity in different cells (IC50, μM) HepG2) [µM] | IC50 (Vero cells; Table 1, read-out: Cytotoxicity in different cells (IC50, μM) Vero) [µM] | EC90 (HIV-1LAl; Table 1, read-out: Anti-HIV-1 activity in different cells (EC90, μM) PBM) [µM] | EC90 (HIV-1NL4-3; Table 1, read-out: Anti-HIV-1 activity in different cells (EC90, μM) MT-4) [µM] | IC50 (human PBM cells; Table 1, read-out: Cytotoxicity in different cells (IC50, μM) PBM) [µM] | IC50 (MT-2 cells; Table 1, read-out: Cytotoxicity in different cells (IC50, μM) MT-2) [µM] | IC50 ([1]; Table 1, read-out: Cytotoxicity in different cells (IC50, μM) CEM) [µM] |
| --- | --- | --- | --- | --- | --- | --- | --- | --- | --- | --- | --- | --- | --- | --- | --- | --- |
| CCc1ccc(C(=O)Nc2nc(=O)n([C@H]3C=C[C@@H](CO)O3)cc2F)cc1 [Compound 51, β-D-2′,3′-Didehydro-2′,3′-dideoxy-N^4-(4-ethyllbenzoyl)-5-fluorocytidine] | 0.24 | > 100 | 40.3 | 6.2 | 2.3 | 13 | > 50 | 8.1 |  |  |  |  |  |  |  |  |
| O=C(Nc1nc(=O)n([C@H]2C=C[C@@H](CO)O2)cc1F)c1cccc(F)c1 [Compound 39, β-D-2′,3′-Didehydro-2′,3′-dideoxy-5-fluoro-N^4-(3-fluorobenzoyl)cytidine] | 1 | > 100 | > 100 | 7.82 | 3.1 | 45.3 | > 50 | 4.2 |  |  |  |  |  |  |  |  |
| O=C(Nc1nc(=O)n([C@H]2C=C[C@@H](CO)O2)cc1F)c1cccc(Cl)c1 [Compound 40, β-D-N^4-(3-Chlorobenzoyl)-2′,3′-didehydro-2,3′-dideoxy-5-fluorocytidine] | 2 | 32.4 | 100 | 1.71 | 3.4 | 45.3 | > 50 | 11.2 |  |  |  |  |  |  |  |  |
| O=C(Nc1nc(=O)n([C@H]2C=C[C@@H](CO)O2)cc1F)c1cccc(Br)c1 [Compound 41, β-D-N^4-(3-Bromobenzoyl)-2′,3′-didehydro-2′,3′-dideoxy-5-fluorocytidine] | 1 | > 100 | 99.7 | 1.71 | 2.2 | 51.6 | > 50 | 24.9 |  |  |  |  |  |  |  |  |
| Nc1nc(=O)n([C@H]2C=C[C@@H](CO)O2)cc1F [D-D4FC, β-D-2′,3′-Dideoxy-2′,3′-didehydro-5-fluorocytidine, reference compound] | 1.19 | > 100 | > 100 | 0.77 | 1.15 | > 100 | > 50 | > 100 |  |  |  |  |  |  |  |  |
| CC(C)(C)c1ccc(C(=O)Nc2nc(=O)n([C@H]3C=C[C@@H](CO)O3)cc2F)cc1 [Compound 53, β-D-N^4-(4-tert-Butylbenzoyl)-2′,3′-didehydro-2′,3′-dideoxy-5-fluorocytidine] | 0.13 | > 100 | 59.2 | 0.41 | 1.1 | 5 | > 50 | 9.9 |  |  |  |  |  |  |  |  |
| O=C(Nc1nc(=O)n([C@H]2CC[C@@H](CO)O2)cc1F)c1cccc([N+](=O)[O-])c1 [Compound 19, β-D-2′,3′-Dideoxy-S-fluoro-N-(3-nitrobenzoyl)cytidine] |  |  |  |  |  |  |  |  | 1.8 | > 100 | > 100 | 1.6 | 1.59 | > 100 | > 50 | > 100 |
